Measured values published in US20250136934A1, “PRODUCTION OF INDUCED MIDBRAIN DOPAMINERGIC PROGENITOR CELLS FROM PLURIPOTENT STEM CELLS” (NUWACELL BIOTECHNOLOGIES CO., LTD., priority 2023, published 2025).

Key:
[1] = tested on: imDAP cells; test: Specification of imDAP cells under BMP and TGF-β signaling inhibition (FACS FOXA2+/OTX2+, NKX2.1 qRT-PCR, LMX1A immunostaining); assay type: cell-based, human; settings: for specification of imDAP cells (FIGS. 13A-13D taken together): LDN193189 at 0.2 μM Day 0 to Day 6 and SB431542 at 50 μM Day 0 to Day 4 or Day 0 to Day 6; for specification of imDAP cells (FIGS. 12A-12C taken together): LDN193189 at 0.5 μM and SB431542 at 20 μM, among all combinations of concentrations tested; for specification of imDAP cells (FIGS. 11A-11C taken together): LDN193189 from D0 to D6 and SB431542 from D0 to D4, among all time windows tested
[2] = tested on: FOXA2+ imDAP cells; test: FACS analysis of FOXA2 expression of imDAP cells derived from hiPSCs; assay type: cell-based, human
Method: • 1. Individualize and collect cells by either Accutase or TrypLE treatment. • 2. Wash cells with 1 ml PBS and pellet cells at 250×g for […]. • 3. Remove supernatant, add ˜200 μl of 4% PFA, mix and fix for 10 min at RT. • 4. Pellet cells at 350×g for 5 min. • 5. Wash cells by 1 ml of FACS buffer and pellet cells at 350×g for 5 min. • 6. Remove supernatant, add 200 μl/tube of FACS buffer/0.1% Triton X, mix for 10 min at RT. • 7. Wash cells by 1 ml of FACS buffer and pellet cells at 350×g for 5 min. • 8. Remove supernatant, add 200 μl/tube of primary antibody diluted in FACS buffer, mix gently, and incubate for 30 min at RT. • 9. Wash cells by 1 ml of FACS buffer and pellet cells at 350×g for 5 min. • 10. Remove supernatant, and add 200 μl of secondary antibody diluted in FACS buffer, mix gently, and incubate for 30 min at RT. • 11. Wash cells by 1 ml of FACS buffer and pellet cells at 300×g for 5 min. • 12. Remove supernatant, add 200 μl of FACS buffer, and run samples on the flow cytometer.
On Day-1, EB formation (Stage 1) was carried out by dissociating hiPSCs (Nuwacell) to form a single-cell suspension and resuspending it in Epic medium (Nuwacell, #RP01001) containing 10 μM Blebbistatin (MCE, #HY-13441) in T25 flasks on a belly dancer and culturing the cells overnight. On Day 0, ventral midbrain floor plate differentiation (Stage 2) was initiated by changing the medium to a Stage 2-1 differentiation medium containing DMEM: F12/B27 (plus Vitamin A) (98:2, v/v) as basal medium and supplemented with 0.2 μM LDN193189, 10 μM SB431542, 1 μg/mL SHH C24II and 1.25 μM CHIR99021 and culturing the cells for 3 Days. From Day 3, the basal medium was changed to DMEM: F12/B27 (minus Vitamin A) (98:2, v/v), and CHIR concentration was boosted to 7.5 μM until Day 10 (Stage 2-2). SB431542 was withdrawn on Day 4, and SHH C24II was withdrawn on Day 8. From Day 10 (Stage 2-3), the medium was changed to a differentiation medium containing DMEM: F12/B27 (minus Vitamin A) (98:2, v/v) as basal medium and supplemented with 0.2 μM LDN193189 and 3 μM CHIR99021. During the cell culture, each of the differentiation media was replaced every day. On Day 16 (at the end of S2-3), EBs were dissociated for single cells and collected for analysis. The cells of each group were stained with FOXA2-PE antibody (BD, #561689), the percentage of FOXA2+ imDAP cells were analyzed by flow cytometry (FIG. 5). The above experiment was repeated for three times and the derived imDAP cells were named as Lot1, Lot2 and Lot3, respectively.
On Day-1, EB formation (Stage 1) was carried out by dissociating hiPSCs (Nuwacell) to form a single-cell suspension and resuspending it in Epic medium (Nuwacell, #RP01001) containing 10 μM Blebbistatin (MCE, #HY-13441) in T25 flasks on a belly dancer and culturing the cells overnight. On Day 0, ventral midbrain floor plate differentiation (Stage 2) was initiated by changing the medium to a Stage 2-1 differentiation medium containing DMEM: F12/B27 (plus Vitamin A) (98:2, v/v) as basal medium and supplemented with 0.2 μM LDN193189, 20 μM SB431542, 1.2 μM CHIR99021, and 1 μg/mL SHH C24II or the combination of SHH agonists including 500 ng/mL SHH C24II, 2 μM Purmorphamine and 10 nM SAG and culturing the cells for 3 days. From Day 3, the basal medium was changed to DMEM: F12/B27 (minus Vitamin A) (98:2, v/v). Cells were exposed to Boost-CHIR concentration of 7.5 μM starting from Day 4 to Day 6 (Stage 2-2), followed by a low CHIR concentration of 1.2 μM (Stage 2-3) until Day 10. […]

Compound | specification of imDAP cells (FIGS. 13A-13D taken together) [1] | specification of imDAP cells (FIGS. 12A-12C taken together) [1] | specification of imDAP cells (FIGS. 11A-11C taken together) [1] | percentage of cells positive for FOXA2 ([2]; 4-step protocol, SHH agonist in medium Day 0 to Day 10, analysis Day 16) | percentage of FOXA2+ cells ([2]; without Vitamin A throughout differentiation versus Vitamin A only D0-3 or D0-2)
c1ccc2c(-c3cnn4cc(-c5ccc(N6CCNCC6)cc5)cnc34)ccnc2c1 [LDN193189] | best results | best results | best results |  | 
NC(=O)c1ccc(-c2nc(-c3ccc4c(c3)OCO4)c(-c3ccccn3)[nH]2)cc1 [SB431542] | best results | best results | best results |  | 
SHH C24II: sonic hedgehog agonist polypeptide, SEQ ID NO: 2 |  |  |  | 85.71% | 
Vitamin A |  |  |  |  | higher percentage
